Measurements published in patent US12016682B2, “In-vivo monitoring of molecular targets” (The Regents of the University Of California, priority 2013, dated 2024).
{C7MB} = methylene blue on (CH2)7 linker; {C11SH} = thiol on (CH2)11 linker; {MB} = methylene blue redox label; {C6SH} = thiol on (CH2)6 linker

Legend:
[1] = test system: DOX probe; assay: DOX probe specificity characterization against off-target chemotherapy agents; assay type: binding; settings: 1,000× greater concentrations (1 mM vs DOX 1 μM), 1×SSC
Source text: Probes were characterized in terms of affinity, specificity and kinetic response. […] At each concentration, the signal was permitted to equilibrate and then ten subsequent readings were obtained from two separate electrodes and averaged as the reported values. […] Voltammograms were taken in immediate succession to provide maximal temporal resolution. Dose-response curves were obtained by fitting data to a one-site binding model, and kinetic-response curves were obtained by fitting data to a one-phase association and dissociation model.

[2] = DOX probe characterization: dose-response (affinity) and kinetic response by square-wave voltammetry; assay type: binding
Source text: Aptamer probes were synthesized with the following sequences: DOX-probe: 5′-HS—(CH2)6-ACCATCTGTGTAAGGGGTAAGGGGTGGT-MB-3′ (SEQ ID NO: 1), Kanamycin-probe: 5′-HS—(CH2)6-GGGACTTGGTTTAGGTAATGAGTCCC-MB-3′ (SEQ ID NO: 2). DOX-probe is a truncated form of an anthracycline aptamer. A region of the aptamer suspected of supporting a hairpin structure was selected, with an apparent active binding site in the base. The stem was engineered to enable effective signal transduction through stabilization of the folded state. The kanamycin probe was adapted from that described in Rowe et al. Analytical chemistry 82, 7090-5 (2010). Each probe was thiolated at the 5′-end to facilitate self-assembly on the gold working electrodes, and conjugated with an MB redox label at the 3′-end to enable target binding-induced charge transfer modulation. Prior to probe immobilization, the gold electrodes were first cleaned via cyclic voltammetry, with twelve potential sweeps ranging from −0.8 to 0.9 V (with respect to the platinum reference electrode) applied at 0.1 V·s^−1 with a sample interval of 0.001 V and 10 μA sensitivity in 50 mM H2SO4. Subsequently, the chamber was flushed with DI water, followed by the addition of probe solution. The probe solution was prepared by adding 2 μL of 10 mM tris(2-carboxyethyl)phosphine (TCEP) to 1 μL of 200 μM probe stock and incubating at room temperature for 60 minutes to enable cleavage of disulphide bonds. The solution was then diluted to 2 μM in 1× saline-sodium citrate (SSC) buffer for effective self-assembly. The chip was incubated with probe solution for 1 hour at room temperature, permitting the thiolated aptamer to form a monolayer on the gold electrode surface. The chamber was then flushed with 5 mL DI water for 5 minutes, and the remaining electrode area was incubated for two hours in passivation solution, consisting of 1 μL of stock 6-mercaptohexanol diluted to 3 mM in DI water. The chamber was flushed again with DI water and filled with 1×SSC, after which the device was stored at 4° C. until use.
Electrochemical measurements were conducted with an electrochemical analyzer (730B, CH Instruments, Austin, TX). The chip was connected via 8-pin card-edge connector and subjected to SWV scans. Working electrodes were scanned in continuous succession with an average scan period of 8 seconds. To accommodate potential shifts due to the non-ideal on-chip pseudo-reference electrodes, a 400 mV potential range was scanned to reliably capture the MB redox peak. For optimal frequency determination for the KDM, frequency-sweep scans were performed from 5 Hz to 800 Hz, with amplitude of 25 mV. A custom peak-fitting script was created to fit the SWV measurements with a Gaussian curve on a hyperbolic baseline. Peak currents were then normalized to a baseline peak current to generate signal gain. Unless otherwise noted, all reported gains were obtained via KDM with the difference divided average of gains from 7.5 Hz and 75 Hz signals.
Probes were characterized in terms of affinity, specificity and kinetic response. For affinity measurements, a dose-response curve was obtained by subjecting the probe to DOX concentrations (for the DOX-probe) ranging from 50 nM to 10 μM in 1×SSC at a flow-rate of 1 mL·h^−1. At each concentration, the signal was permitted to equilibrate and then ten subsequent readings were obtained from two separate electrodes and averaged as the reported values. The same procedure was applied for specificity characterization, where DOX was injected at 1 μM while off-target reagents mitomycin-C (MTC), ifosfamide (Ifex), Mesna, dacarbazine (DTIC) or cisplatin (CDDP) were injected at 1 mM. […] Voltammograms were taken in immediate succession to provide maximal temporal resolution. Dose-response curves were obtained by fitting data to a one-site binding model, and kinetic-response curves were obtained by fitting data to a one-phase association and dissociation model. […]

[3] = humans; cited from earlier work
[4] = male, Sprague-Dawley, rat, in vivo
[5] = Continuous real-time MEDIC measurement of in vivo DOX concentration in live rats; settings: male, Sprague-Dawley, rat, 1 mg·m^−2, alpha-phase half-life t1/2^α
[6] = Cocaine/procaine binding aptamer sensor step response to target in buffer and whole blood (SWV)
[7] = in vivo; settings: male, Sprague-Dawley, rat, iv
Protocol: A calibration curve was obtained (FIG. 5), then doses of 32, 64 and 96 mg·kg^−1 were serially injected, followed by a baseline control.

[8] = stated, not measured here; cited from earlier work
[9] = biphasic, cited from earlier work
[10] = after a 5 minute pulse of 600 nM DOX

With `O=S(=O)(O)CCS` [mesna] the “sensor response to off-target drug” value [1] was “did not respond”.
For “5′-HS—(CH2)6-ACCATCTGTGTAAGGGGTAAGGGGTGGT-MB-3′ (ACCATCTGTGTAAGGGGTAAGGGGTGGT; DNA, 5' {C6SH}, 3' {MB}, backbone and methylation of C not given here) [DOX probe, truncated form of an anthracycline DNA aptamer, thiolated at the 5′-end, MB redox label at the 3′-end]”, the “time to reach 90% saturation” value ([2]; DOX pulse) was no more than 45 s, the “time to return to 10% of baseline” value ([2]; after DOX pulse) was no more than 100 s and the koff [2, 10] was 0.0225 ± 0.00083 s⁻¹. For the same compound, the kon [2, 10] was 50000 ± 5830 M⁻¹ s⁻¹, the dynamic range ([2]; in buffer) was 0.1 to 10 µM and the “limit of detection (LOD)” value ([2]; in buffer) was 10 nM. The Kd ([2]; signal gain fitted to a Langmuir isotherm, DOX 50 nM to 10 μM in 1×SSC, read-out: apparent Kd) was 0.824 µM.
In the case of `COc1cccc2c1C(=O)c1c(O)c3c(c(O)c1C2=O)C[C@@](O)(C(=O)CO)C[C@@H]3O[C@H]1C[C@H](N)[C@H](O)[C@H](C)O1` [DOX, doxorubicin], the “alpha-phase plasma clearance time” value [3] is listed as 6 to 26 min, the “Pearson correlation coefficient of t1/2^α as a function of body surface area” value [4] is listed as −0.73 and the half-life ([5]; first of two injections of 1 mg·m^−2) is listed as 10.7 ± 0.5 min. The half-life ([5]; second of two injections of 1 mg·m^−2) was 10.8 ± 1 min.
With `O=P1(NCCCl)OCCCN1CCCl` (centres unmarked) [ifosfamide] the “sensor response to off-target drug” value [1] was “did not respond”.
For `N.N.[Cl][Pt][Cl]` [cisplatin], the “sensor response to off-target drug” value [1] was “did not respond”.
With “5′-HS—(CH2)11-AGACAAGGAAAATCCTTCAATGAAGTGGGTCG-(CH2)7-MB-3′ (AGACAAGGAAAATCCTTCAATGAAGTGGGTCG; DNA, 5' {C11SH}, 3' {C7MB}, backbone and methylation of C not given here) [cocaine/procaine binding aptamer, DNA aptamer thiolated on the 5′-end, methylene blue redox label at the 3′-end]” the Kd [6] was roughly 190 µM, the koff ([6]; 128 μM target in 1×SSC buffer) was roughly 0.031 s⁻¹ and the kon ([6]; 128 μM target in 1×SSC buffer) was roughly 160 M⁻¹ s⁻¹. The signal gain ([6]; 128 μM target in 1×SSC buffer, before blood exposure) was 60%, the signal gain ([6]; 128 μM target in buffer after whole blood exposure) was roughly 20% and the signal gain ([6]; 128 μM target in whole blood, after ~1 h whole blood exposure at room temperature) was roughly 10%. The “affinity for its target at 37° C.” value ([6]; 37° C.) was “loses affinity for its target” and the “performance at room temperature” value ([6]; room temperature) was “performs well”.
`NC[C@H]1O[C@H](O[C@H]2[C@H](O)[C@@H](O[C@H]3O[C@H](CO)[C@@H](O)[C@H](N)[C@H]3O)[C@H](N)C[C@@H]2N)[C@H](O)[C@@H](O)[C@@H]1O` [kanamycin] showed a half-life ([7]; 32 mg/kg) of 7.2 min, a half-life ([7]; 64 mg/kg) of 10 min and a half-life ([7]; 96 mg/kg) of 9 min. For the same compound, the “beta phase t1/2^β” value [8] was 120 to 180 min.
For `C[C@@H]1[C@H](O)[C@@H](C)/C=C/C=C/C=C/C=C/C=C/C=C/C=C/[C@H](O[C@@H]2O[C@H](C)[C@@H](O)[C@H](N)[C@@H]2O)C[C@@H]2O[C@](O)(C[C@@H](O)C[C@@H](O)[C@H](O)CC[C@@H](O)C[C@@H](O)CC(=O)O[C@H]1C)C[C@H](O)[C@H]2C(=O)O` [Amphotericin B], the “half-life, initial phase” value ([9]; initial phase) is given as 1440 min and the “half-life, second phase” value ([9]; second phase) is given as 15 days.
In the case of `CO[C@@]12[C@H](COC(N)=O)C3=C(C(=O)C(C)=C(N)C3=O)N1C[C@@H]1N[C@@H]12` [mitomycin-C], the “sensor response to off-target drug” value [1] is reported as “did not respond”.
